Patent US6605639B1, “Ligands of nuclear receptor” (Nuclear Receptor Research, Ltd., priority 1998, dated 2003)

Experiments:
[1] = test system: rats given streptozotocin; assay: Relief of onset of streptozotocin-induced diabetes; assay type: in vivo, rat; details: male SD rats, streptozotocin 50 mg/kg i.v.; 10 mg/kg/day oral, 14 days from 24 hours after; Mean ± SE
Procedure: Eighteen male Wistar rats weighing about 200 g were divided into 3 groups at random. To the animals of 2 groups, 45 mg/kg of streptozotocin was intravenously administered. One of these groups was regarded as a control group, while the other was regarded as the Compound-6 administration group. To the remaining 1 group which was regarded as the normal control group, a 1/10 M citrate buffer (pH 3.5) […] was intravenously administered. Immediately after the administration of streptozotocin, a suspension of Compound-6 in acacia was orally administered once a day continuously for 10 days in a dose of 20 mg/kg/day. To other groups, an acacia solution alone was administered. After fasting for 6 hours after the final administration, blood was collected from the heart of each animal and the blood glucose level and the blood insulin level were measured. As the data given in Table 7a show, the oral administration of Compound-6 inhibited an increase in the blood glucose level and a decrease in the blood insulin level.
Eighteen male SD rats weighing about 250 g were divided into 3 groups at random. […] To the normal control group and the streptozotocin control group, the acacia solution alone was administered orally. After fasting for 6 hours after the final administration, blood was collected from the heart of each animal and the blood glucose level and the blood insulin level were measured. As the data given in Table 7b show, the oral administration of Compound-5 inhibited an increase in the blood glucose level and a decrease in the blood insulin level.

[2] = test system: male Wistar rats; assay: Oral administration of Compound-5 to rats: toxicity and Compound-1 in the blood
Procedure: Male Wistar rats (n=4) weighing about 200 g were employed and the concentration of Compound-1 contained in the serum was expressed in mean±SE (FIG. 9).
In FIG. 9, open circles show a case wherein Compound-5 was solubilized with HCO-60 and orally administered in a dose of 2 mg/kg.
Solid circles show a case wherein Compound-5 was suspended in an acacia solution and orally administered in a dose of 20 mg/kg. Per part of the serum collected with the passage of time, ethanol containing 1% of acetic acid was added and the mixture was allowed to stand in the dark at room temperature for 7 days. Then Compound-1 was determined by high performance liquid chromatography.
Open squares show a case wherein Compound-5 was suspended in an acacia solution and orally administered. Then the blood was collected at definite points and Compound-1 was determined by high performance liquid chromatography immediately thereafter. […] Separately, Compound-5 suspended in an acacia solution was orally administered to rats having been cannulated into the portal vein. Then the portal blood was collected with the passage of time and Compound-1 was determined.

[3] = test system: male ICR and ddY mice; assay: Serum total cholesterol lowering effect in mice; assay type: in vivo, mouse; details: 8 days; for Serum total cholesterol, % change: vs control; for Serum total cholesterol: Mean±SE
Excerpt: Effect of serum cholesterol lowering agents varies among animals. Namely, some agents which are effective on a certain animal exert […] on others. For example, compactin, which is an HMG CoA reductase inhibitor, cannot lower the serum total cholesterol level when administered to rodents such as rat or mouse. This is because even though HMG CoA reductase is inhibited in the rodent liver, the enzyme is biosynthesized in an amount in excess of that for compensating the inhibition so that the inhibitory effect is negated. Accordingly, it is favorable to calibrate the effect of lowering serum total cholesterol level in as many animals as possible. Concerning the effect of the compounds of the present invention on the serum total cholesterol level, an assay was made with the use of mice. After adding these compounds to a standard powdery feed for rat and mouse, the resultant mixtures were molded into pellets and given for 8 days to male ICR and ddY mice aged 5 weeks. In the afternoon of the day 8, the blood of each animal was collected from the heart and the total cholesterol in the serum was determined. The doses were determined as the maximum dose, in which body weight gain was not suppressed after orally administering for 1 week, and as the ¼ dose thereof.
Each value is represented in Mean±SE (n=10). a) In the case of Compound-1, the control group consisted of 23 animals while the 0.04% and 0.01% groups each consisted of 12 animals.

[4] = target: T1, RAR (Homo sapiens, UniProt P10276); assay: RAR reporter gene (luciferase) transfer assay in COS-1 cells; assay type: cell-based; details: control lot = 1
T1 construct: expressed in transfected cells; host or cells: COS-1 cells
T1 sequence (P10276 1-462): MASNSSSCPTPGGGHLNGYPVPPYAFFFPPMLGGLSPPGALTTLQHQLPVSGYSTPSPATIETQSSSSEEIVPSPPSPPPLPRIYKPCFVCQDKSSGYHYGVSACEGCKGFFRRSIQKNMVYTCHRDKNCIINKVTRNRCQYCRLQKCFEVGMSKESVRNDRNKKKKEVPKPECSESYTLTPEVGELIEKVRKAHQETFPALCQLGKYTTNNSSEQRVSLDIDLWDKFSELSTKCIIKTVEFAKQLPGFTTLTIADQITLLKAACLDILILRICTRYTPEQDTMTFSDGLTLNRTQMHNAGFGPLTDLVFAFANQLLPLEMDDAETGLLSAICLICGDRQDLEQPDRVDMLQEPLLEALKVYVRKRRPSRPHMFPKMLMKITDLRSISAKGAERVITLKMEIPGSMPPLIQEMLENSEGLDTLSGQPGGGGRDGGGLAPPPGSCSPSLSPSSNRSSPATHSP
Excerpt: Each value means the degree of increase in the luciferase activity, which is expressed by referring the luciferase activity in the control lot as to 1, caused by the addition of the corresponding compound.
As a substitute for a plasmid containing a luciferase gene under the regulation in expression by RXR response element (pRXRL:RXRE-SV40 luciferase), and the RXRα expression plasmid (pRXRα); a plasmid containing a luciferase gene under the regulation in expression by RXR response element (pRARL:RASE-SV40 luciferase), and a […] (pRARα) were transferred into COS-1 cells. Transfectants with these plasmids and the compound of the present invention (concentration: 10^−4 to 10^−7 M) were added to the culture.
(§1) After sucking off the medium from the Petri dish, […] of a cultured cell lysing solution (25 mM Tris phosphate buffer (pH 7.8), 2 mM 1,2-diaminocyclohexane-N, N,N′,N′-tetraacetate, 10% glycerol, 1% Triton X-100) was added and the cells were peeled off with a rubber policeman and collected. After completely disrupting the cells by freezing and melting, the cells were centrifuged at 4° C. (15,000 rpm, 2 min) and the supernatant thus obtained was employed as a sample for measurement. To 20 ml of the supernatant, 100 ml of a luciferase substrate solution (2.14 mg of Co-A, 100 ml of 470 mM D-Luciferin, 200 ml of 530 mM ATP, 2 ml of DTT-Tricine buffer (pH 7.8)) was added and the fluorescence intensity was measured with a luminometer (ATTO Luminosensor AB-2000). To measure the β-galactosidase for determining the gene transfer efficiency, using a Luminescent β-galactosidase detection kit II (Clontech), fluorescence intensity was measured by a luminometer.

[5] = target: T2, human RXRα (Homo sapiens, UniProt P19793); assay: RXR reporter gene (luciferase) transfer assay in COS-1 cells; assay type: cell-based; details: 2 × 10^−5 M
T2 construct: expressed in transfected cells; host or cells: COS-1 cells
T2 sequence (P19793 1-462): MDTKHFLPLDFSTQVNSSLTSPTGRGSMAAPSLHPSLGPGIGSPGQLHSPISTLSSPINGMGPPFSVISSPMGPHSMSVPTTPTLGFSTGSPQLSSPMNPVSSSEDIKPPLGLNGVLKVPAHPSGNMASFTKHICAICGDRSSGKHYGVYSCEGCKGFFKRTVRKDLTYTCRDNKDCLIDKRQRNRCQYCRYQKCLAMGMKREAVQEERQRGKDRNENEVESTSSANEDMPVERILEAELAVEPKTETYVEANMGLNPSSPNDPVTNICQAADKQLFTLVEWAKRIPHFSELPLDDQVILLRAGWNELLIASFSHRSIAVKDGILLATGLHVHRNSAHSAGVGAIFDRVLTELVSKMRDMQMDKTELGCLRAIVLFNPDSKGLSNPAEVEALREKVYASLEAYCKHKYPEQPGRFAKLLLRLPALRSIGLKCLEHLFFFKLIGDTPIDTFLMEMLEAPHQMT
Procedure: A plasmid containing a reporter gene regulated in expression by RXR response element and an RXRα expression plasmid were transferred into COS-1 cells. Then these cells were treated with the compounds of the present invention such as ascochlorin.
Plasmids were transferred into COS-1 cells. Gene transfer was carried out in a conventional manner with the use of Lipofect AMINE reagent (Life Technologies). 1×10^5 cells were dispersed in 2 ml of Dulbecco's modified Eagle medium (DMEM) containing 10% of fetal calf serum and poured into a 35 mm Petri dish. After culturing in a CO2 incubator for 17 hours, the medium was removed and the cells adhering to the Petri dish were washed with phosphate-buffered saline (PBS). Then gene transfer was carried out by using Lipofect AMINE reagent. Namely, 500 ml of a minimum serum medium OptiMEM (Life Technologies) containing […] of a plasmid containing a luciferase gene under the regulation in expression by RXR response element (PRXRL: RXRE-SV40 luciferase; a reporter gene plasmid wherein RXRE has been ligated to SV40 promoter and luciferase cDNA, under the regulation in expression thereby, has been located downstream thereof); […] of an RXRα expression plasmid (pRXRα; a plasmid wherein human RXRα CDNA has been ligated to the downstream of a cytomegalovirus promoter to express human RXRα in mammalian cells); and 2 mg of a β-galactosidase gene plasmid to assess the gene transfer ratio (pCH110; Pharmacia) were pre-mixed with 500 ml of OptiMEM containing 50 ml of Lipofec AMINE, and the resultant mixture was maintained at room temperature for 15 minutes. 100 ml of this liquid mixture was mixed with 400 ml of OptiMEM, and the medium mixture was divided to the Petri dish. After maintaining in a CO2 incubator at 37° C. for 3 hours, the gene transfer medium was sucked off from the Petri dish and DMEM medium containing a test substance and 10% of serum (activated carbon-treated) was added thereto followed by culturing at 37° C. for 20 hours. […] Further, dimethyl sulfoxide (final concentration: 0.1%) was added as the solvent for the test substance.
as §1

[6] = test system: white rabbits; assay: Inhibition of arteriosclerosis in white rabbits fed high fat feed; details: 0.2% in high fat feed, 14 weeks
Procedure: Thus, a high fat feed was prepared by adding 10% of hardened coconut oil, 2% of cholesterol, 0.5% of bovine bile powder and 0.04% or 0.01% of ascochlorin to a powdery marketed standard white rabbit feed and molded the mixture into pellets. Separately, another high fat feed for the control group was prepared without using ascochlorin.
Twenty-four white rabbits weighing about 2 kg were divided into 4 groups at random. One of these groups was regarded as the control group, while the remaining 3 groups were respectively regarded as the clofibrate group, the ascochlorin 0.01% group and the ascochlorin 0.04% group at random. Then the experiment was carried out for 14 weeks.

[7] = test system: hereditary obese diabetic mice ob/ob and db/db; details: oral; cited from earlier work
[8] = test system: male Wistar rats; assay: Sterol balance and bile acid excretion in rats; assay type: in vivo, rat; details: High cholesterol feed
Procedure: Feed-origin cholesterol and neutral sterol and acidic sterol in the feces of rats, to which the compounds of the present invention had been administered, were determined to monitor sterol balance and changes in the bile acid composition in feces. […] Further, the bile was sampled with the passage of time from rats having been subjected to cholangiostomy and bile acids thereof were determined. […] Male Wistar rats weighting about 250 g were divided into groups each having 6 to 8 animals. […] […] The feces were collected on the days 6 and 10. Then sterols were extracted therefrom in a conventional manner, acidic sterols and neutral sterols were determined. On the other hand, cholesterol in the feed was also determined so as to calculate the amount of feed-origin sterol.

CC(=O)Oc1c(Cl)c(C)c(C=O)c(O)c1CC=C(C)C=CC1(C)C(C)CCC(=O)C1C (centres unmarked) [Compound-5, acetylASC]
Blood glucose [1]: 237.2 ± 26.31 mg/dL
Serum IRI [1]: 15.5 ± 2.16 mU/ml
time within which all of the rats died following administration ([2]; 2 mg/kg oral, solubilized with HCO-60, n=4): ≤ 1 h
lethality ([2]; rat, suspended in a 2% acacia solution, 200 mg/kg): not killed
free Compound-1 in the blood after administration of Compound-5 ([2]; suspended in acacia solution, oral, determined immediately by HPLC): no free Compound-1 was detected
Serum total cholesterol, % change ([3]; 0.01% in feed): −13%
Serum total cholesterol ([3]; 0.01% in feed): 132 ± 6.1 mg/dL
Serum total cholesterol, % change ([3]; 0.04% in feed): −27%
Serum total cholesterol ([3]; 0.04% in feed): 117 ± 3.3 mg/dL

COc1c(C=O)c(C)c(Cl)c(O)c1CC=C(C)C=CC1(C)C(C)CCC(=O)C1C (centres unmarked) [Compound-10, 2-O-methylASC]
degree of increase in the luciferase activity, RAR vector ([4]; 2 × 10^−5 M): 40
fold increase in luciferase reporter activity (control = 1) [5]: 1.45
degree of increase in the luciferase activity, RXR vector ([5]; control lot = 1): 58
Serum total cholesterol, % change ([3]; 0.01% in feed): −30%
Serum total cholesterol ([3]; 0.01% in feed): 130 ± 4.5 mg/dL
Serum total cholesterol, % change ([3]; 0.04% in feed): −34%
Serum total cholesterol ([3]; 0.04% in feed): 122 ± 3.0 mg/dL

CC1=C(/C=C/C(C)=C/C=C/C(C)=C/C(=O)O)C(C)(C)CCC1 [All-trans retinoic acid, reference compound]
degree of increase in the luciferase activity, RAR vector ([4]; 10^−7 M): 46

CCOC(=O)C(C)(C)Oc1ccc(Cl)cc1 [clofibrate, reference compound]
animals died from circulatory insufficiency due to obstruction in the coronary artery [6]: 2 animals among six

Cc1cc2c(cc1C1(c3ccc(C(=O)O)cn3)CC1)C(C)(C)CCC2(C)C [LG100268]
blood glucose levels, serum neutral fat levels and serum insulin levels [7]: drastically lower

CC(/C=C/C1(C)C(C)CCC(=O)C1C)=C\Cc1c(O)c(C=O)c(C)c(Cl)c1OCCCC(=O)O (centres unmarked) [compound 16]
Sterol balance ([8]; administration 5 days): +15.12 mg/day
Sterol in feces, Acidic sterol ([8]; administration 5 days): 8.67 mg/day
Sterol in feces, Cholesterol ([8]; administration 5 days): 246.30 mg/day
Sterol in feces, Coprosterol ([8]; administration 5 days): 41.05 mg/day
excretion increase ([8]; administration 5 days): 8.95 mg/day
Sterol balance ([8]; administration 10 days): +28.52 mg/day
Sterol in feces, Acidic sterol ([8]; administration 10 days): 9.93 mg/day
Sterol in feces, Cholesterol ([8]; administration 10 days): 233.08 mg/day
Sterol in feces, Coprosterol ([8]; administration 10 days): 58.27 mg/day
excretion increase ([8]; administration 10 days): 34.07 mg/day

COc1c(Cl)c(C)c(C=O)c(OC)c1CC=C(C)C=CC1(C)C(C)CCC(=O)C1C (centres unmarked) [compound 7, 2,4-dimethylASC]
Serum total cholesterol, % change ([3]; 0.04% in feed): −31%
Serum total cholesterol ([3]; 0.04% in feed): 120 ± 5.9 mg/dL

CC(/C=C/[C@@]1(C)[C@H](C)CCC(=O)[C@@H]1C)=C\Cc1c(O)c(C=O)c(C)c(Cl)c1OC(=O)c1cccnc1 [compound 19, 4-O-nicotinoylASC]
Serum total cholesterol, % change ([3]; 0.01% in feed): −13%
Serum total cholesterol ([3]; 0.01% in feed): 91 ± 4.5 mg/dL
Serum total cholesterol, % change ([3]; 0.04% in feed): −16%
Serum total cholesterol ([3]; 0.04% in feed): 88 ± 3.0 mg/dL
